In patent US9408921B2, “Antineoplastic hydrogels, and enzyme-instructed preparations thereof” (Brandeis University, priority 2009, dated 2016):
“And” between values parts separate entries of the source, which are not always exact repeats. Identical values can stand only once. “Also recorded” adds a separate entry of the source. Where a SMILES comes first, the peptide text is derived from it. [ ]: non-standard residue; d: D form. The star is where a group is joined. Paclitaxel(2'-O-succinyl) = CC(=O)O[C@H]1C(=O)[C@@]2(C)[C@H]([C@H](OC(=O)c3ccccc3)[C@]3(O)C[C@H](OC(=O)[C@H](OC(=O)CCC(=O)*)[C@@H](NC(=O)c4ccccc4)c4ccccc4)C(C)=C1C3(C)C)[C@]1(OC(C)=O)CO[C@@H]1C[C@@H]2O; Acetyl(2-naphthyl) = O=C(Cc1ccc2ccccc2c1)*; pY = N[C@@H](Cc1ccc(OP(=O)(O)O)cc1)C(=O)O

How the values were obtained:
HeLa cells = assay: cytotoxicity against HeLa cells
Source text: To evaluate the activity of 5a, it was used to treat HeLa cells; paclitaxel (1) was used as the control.

solubility = assay type: physicochemical
[1] = stability in water and in gel state; assay type: physicochemical
Source text: Nicolaou, K. C.; Guy, R. K.; Pitsinos, E. N.; Wrasidlo, W. Angew. Chem. Intl. Ed.

## CC(=O)O[C@H]1C(=O)[C@@]2(C)[C@H]([C@H](OC(=O)c3ccccc3)[C@]3(O)C[C@H](OC(=O)[C@H](O)[C@@H](NC(=O)c4ccccc4)c4ccccc4)C(C)=C1C3(C)C)[C@]1(OC(C)=O)CO[C@@H]1C[C@@H]2O [Compound 1, Paclitaxel, reference compound]
HeLa cells; Homo sapiens, HeLa, 48 h
  IC50: 47.3 ± 2.99 nM

## NCCCC[C@H](NC(=O)[C@H](Cc1ccccc1)NC(=O)[C@H](Cc1ccccc1)NC(=O)Cc1ccc2ccccc2c1)C(=O)N[C@@H](Cc1ccc(OP(=O)(O)O)cc1)C(=O)O [Compound 4, NapFFKYp] ({Acetyl(2-naphthyl)}-FFK[pY]-OH)
HeLa cells; HeLa cells
  cytotoxicity in words: essentially biocompatible; also recorded: very limited toxicity
HeLa cells; HeLa cells, 48 h, highest concentration tested 500 μM
  IC50: > 500000 nM

## CC(=O)O[C@H]1C(=O)[C@@]2(C)[C@H]([C@H](OC(=O)c3ccccc3)[C@]3(O)C[C@H](OC(=O)[C@H](OC(=O)CCC(=O)NCCCC[C@H](NC(=O)[C@H](Cc4ccccc4)NC(=O)[C@H](Cc4ccccc4)NC(=O)Cc4ccc5ccccc5c4)C(=O)N[C@@H](Cc4ccc(OP(=O)(O)O)cc4)C(=O)O)[C@@H](NC(=O)c4ccccc4)c4ccccc4)C(C)=C1C3(C)C)[C@]1(OC(C)=O)CO[C@@H]1C[C@@H]2O [Compound 5a] ({Acetyl(2-naphthyl)}-FFK(Paclitaxel(2'-O-succinyl))[pY]-OH)
HeLa cells; HeLa cells, 48 h of incubation
  IC50: 9.97 ± 2.05 nM
solubility; 100 mM phosphate buffered saline (PBS) solution
  solubility: 7600 µg/mL and 4260 µM
[1]; in water, without a phosphatase
  stability in water: hardly any dephosphorylation over months

## CC(=O)O[C@H]1C(=O)[C@@]2(C)[C@H]([C@H](OC(=O)c3ccccc3)[C@]3(O)C[C@H](OC(=O)[C@H](OC(=O)CCC(=O)NCCCC[C@H](NC(=O)[C@H](Cc4ccccc4)NC(=O)[C@H](Cc4ccccc4)NC(=O)Cc4ccc5ccccc5c4)C(=O)N[C@@H](Cc4ccc(O)cc4)C(=O)O)[C@@H](NC(=O)c4ccccc4)c4ccccc4)C(C)=C1C3(C)C)[C@]1(OC(C)=O)CO[C@@H]1C[C@@H]2O [Compound 5b] ({Acetyl(2-naphthyl)}-FFK(Paclitaxel(2'-O-succinyl))Y-OH)
HeLa cells; HeLa cells, 48 h of incubation
  IC50: 51.4 ± 7.69 nM
solubility; in water
  solubility: 21.6 µg/mL and 12.7 µM
[1]; gel state, mass spectroscopic (MS) analysis
  stability in gel state: stable in gel state over weeks
